Results as given in US20100056524A1, “Compound” (priority 2008, published 2010).
Counter-ions that a name gives are not always drawn.

Molecular target: T1, TBK1 (Homo sapiens, UniProt Q9UHD2)
T1 construct: All protein kinases were of human origin and encoded full length proteins, unless indicated otherwise; His6; made in house; host or cells: insect Sf21 cells
T1 sequence (Q9UHD2 1-729): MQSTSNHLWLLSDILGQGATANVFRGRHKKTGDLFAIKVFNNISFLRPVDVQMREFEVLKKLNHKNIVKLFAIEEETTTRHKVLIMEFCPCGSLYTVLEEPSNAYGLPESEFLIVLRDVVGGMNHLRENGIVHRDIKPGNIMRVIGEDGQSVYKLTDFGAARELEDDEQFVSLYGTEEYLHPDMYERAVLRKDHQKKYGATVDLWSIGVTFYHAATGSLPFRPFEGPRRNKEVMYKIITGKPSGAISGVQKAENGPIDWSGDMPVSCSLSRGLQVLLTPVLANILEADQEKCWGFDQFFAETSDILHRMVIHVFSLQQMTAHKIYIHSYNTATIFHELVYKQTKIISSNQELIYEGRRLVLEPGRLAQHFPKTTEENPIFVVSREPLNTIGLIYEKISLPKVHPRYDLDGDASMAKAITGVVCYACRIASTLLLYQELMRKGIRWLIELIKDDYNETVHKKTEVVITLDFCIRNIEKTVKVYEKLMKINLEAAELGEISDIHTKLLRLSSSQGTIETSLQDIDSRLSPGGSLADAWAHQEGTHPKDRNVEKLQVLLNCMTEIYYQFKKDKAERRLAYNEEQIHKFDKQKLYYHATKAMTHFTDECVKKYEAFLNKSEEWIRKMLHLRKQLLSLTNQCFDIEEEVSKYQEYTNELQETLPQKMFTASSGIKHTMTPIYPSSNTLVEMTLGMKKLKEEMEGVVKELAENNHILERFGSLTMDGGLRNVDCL
Test: TBK1 protein kinase assay ([γ-33P]ATP, P81 filterplates)
Type: biochemical
Settings: 50 μM ATP; read-out: Potency (TBK1 IC50 potency score)
Text: All protein kinases were of human origin and encoded full length proteins, unless indicated otherwise. They were either expressed as glutathione S-transferase (GST) fusion proteins in Escherichia Coli or as hexahistidine (His6)-tagged proteins in insect Sf21 cells. GST fusion proteins were purified by affinity chromatography on glutathione-Sepharose, and His6-tagged proteins on nickel/nitriloacetate-agarose. The procedures for expressing some of the protein kinases used herein have been detailed previously.^8,9 The following sections outline the DNA vectors synthesised and the procedures used to express and purifying protein kinases that have not been reported previously.
The following kinases were expressed in Sf21 cells: Aurora B and Aurora C, extra-cellular signal-regulated kinase 8 (ERK8), microtubule affinity regulating kinase 3 (MARK3), protein kinase Bα[118-480][S473D], protein kinase Bβ (PKBβ[120-481][S474D], 3-phosphoinositide-dependent protein kinase-1 [52-556]
Assays were performed for 30 min using Multidrop Micro reagent dispensers (Thermo Electron Corporation, Waltham, Mass. 02454, USA) in a 96-well format. The concentration of magnesium acetate in the assays was 10 mM and the [γ-33P] ATP (800 cpm/pmol) was used at 5, 20 or 50 μM as indicated, in order to be at or below the Km for ATP for each enzyme. Protein kinases assayed at 5 μM ATP were: —ERK1, ERK8, PKBα, MARK3, Aurora C. Protein kinases assayed at 20 μM ATP were: —JNK1, PDK1, CHK1, CHK2, CDK2 and Aurora B. Protein kinases assayed at 50 μM ATP were: —MNK2, IKKepsilon and TBK1.
The assays were initiated with MgATP, stopped by addition of 5 μl of 0.5 M orthophosphoric acid and spotted on to P81 filterplates using a unifilter harvester (PerkinElmer, Boston, Mass. 02118, USA). The IC50 values of inhibitors were determined after carrying out assays at 10 different concentrations of each compound.
ERK1 and ERK8 were both assayed against myelin basic protein (MBP, 0.33 mg/ml). MARK3 was assayed against the peptide […] (300 μM), MNK2 against the eIF4E protein (0.5 mg/ml). PKBβ was assayed against the peptide […] (30 μM). TBK1 were assayed against ([…]) (300 μM). The substrates used for other protein kinases were described previously.^8,9
Unless stated otherwise, enzymes were diluted in 50 mM Tris/HCl pH 7.5, 0.1 mM EGTA, 1 mg/ml BSA, 0.1% (v/v) 2-mercaptoethanol and assayed in 50 mM Tris/HCl pH 7.5, 0.1 mM EGTA, 0.1% (v/v) 2-mercaptoethanol.

Row | IC50 [nM] | Structure (SMILES)
1 | 1000 to 10000 | O=C(NCCCNc1nc(Nc2cccc(O)c2)ncc1C1CC1)c1cccs1 [Example 29, Thiophene-2-carboxylic acid {3-[5-cyclopropyl-2-(3-hydroxy-phenylamino)-pyrimidin-4-ylamino]-propyl}-amide Trifluoroacetic acid salt]
2 | 1000 to 10000 | CC(C)(C)OC(=O)Nc1cccc(Nc2ncc(C3CC3)c(NCCCNC(=O)c3cccs3)n2)c1 [Example 31, [3-(5-Cyclopropyl-4-{3-[(thiophene-2-carbonyl)-amino]-propylamino}-pyrimidin-2-ylamino)-phenyl]-carbamic acid tert-butyl ester]
3 | < 100 | CS(=O)(=O)Nc1cccc(Nc2ncc(C3CC3)c(NCCCNC(=O)c3cccs3)n2)c1 [Example 32, Thiophene-2-carboxylic acid {3-[5-cyclopropyl-2-(3-methanesulfonylamino-phenylamino)-pyrimidin-4-ylamino]-propyl}-amide trifluoroacetic acid salt]
4 | 100 to 1000 | O=C(NCCCNc1nc(Nc2cccc(OC(F)(F)F)c2)ncc1C1CC1)c1cccs1 [Example 35, Thiophene-2-carboxylic acid {3-[5-cyclopropyl-2-(3-trifluoromethoxy-phenylamino)-pyrimidin-4-ylamino]-propyl}-amide trifluoroacetic acid salt]
5 | 100 to 1000 | O=C1CCCN1CCCNc1nc(Nc2cccc(F)c2)ncc1C1CC1 [Example 38, 1-{3-[5-Cyclopropyl-2-(3-fluoro-phenylamino)-pyrimidin-4-ylamino]-propyl}-pyrrolidin-2-one]
6 | < 100 | O=C(NCCCNc1nc(Nc2cccc(N3CCOCC3)c2)ncc1C1CC1)C1CCC1 [Example 41, Cyclobutanecarboxylic acid {3-[5-cyclopropyl-2-(3-morpholin-4-yl-phenylamino)-pyrimidin-4-ylamino]-propyl}-amide]
7 | < 100 | O=C(NCCCNc1nc(Nc2cccc(Cn3ccnc3)c2)ncc1C1CC1)C1CCC1 [Example 42, Cyclobutanecarboxylic acid {3-[5-cyclopropyl-2-(3-imidazol-1-ylmethyl-phenylamino)-pyrimidin-4-ylamino]-propyl}-amide]
8 | 100 to 1000 | CN(C)c1cccc(Nc2ncc(C3CC3)c(NCCCNC(=O)c3cccs3)n2)c1 [Example 44, Thiophene-2-carboxylic acid {3-[5-cyclopropyl-2-(3-dimethylamino-phenylamino)-pyrimidin-4-ylamino]-propyl}-amide trifluoroacetic acid salt]
9 | 100 to 1000 | CN1CCN(C(=O)c2cccc(Nc3ncc(C4CC4)c(NCCCNC(=O)c4cccs4)n3)c2)CC1 [Example 45, Thiophene-2-carboxylic acid (3-{5-cyclopropyl-2-[3-(4-methyl-piperazine-1-carbonyl)-phenylamino]-pyrimidin-4-ylamino}-propyl)-amide]

Further lines, the compound ahead of its results:

Row | Structure (SMILES) | IC50 [nM]
10 | O=C(NCCCNc1nc(Nc2cccc(F)c2)ncc1C1CC1)C1CCCC1 [Example 22, Cyclopentanecarboxylic acid {3-[5-cyclopropyl-2-(3-fluoro-phenylamino)pyrimidin-4-ylamino]-propyl}-amide] | < 100
11 | O=C(CC1CC1)NCCCNc1nc(Nc2cccc(F)c2)ncc1C1CC1 [Example 24, 2-Cyclopropyl-N-{3-[5-cyclopropyl-2-(3-fluoro-phenylamino)-pyrimidin-4-ylamino]-propyl}-acetamide] | < 100
12 | O=C(NCCCNc1nc(Nc2cccc(F)c2)ncc1C1CC1)C1CC1 [Example 25, Cyclopropanecarboxylic acid {3-[5-cyclopropyl-2-(3-fluoro-phenylamino)-pyrimidin-4-ylamino]-propyl}-amide] | 100 to 1000
13 | O=C(NCCCNc1nc(Nc2cccc(F)c2)ncc1C1CC1)c1cccs1 [Example 26, Thiophene-2-carboxylic acid {3-[5-cyclopropyl-2-(3-fluoro-phenylamino)-pyrimidin-4-ylamino]-propyl}-amide] | 100 to 1000
14 | O=C(NCCCNc1nc(Nc2cccc(C(F)(F)F)c2)ncc1C1CC1)c1cccs1 [Example 27, Thiophene-2-carboxylic acid {3-[5-cyclopropyl-2-(3-trifluoromethyl-phenylamino)-pyrimidin-4-ylamino]-propyl}-amide] | 100 to 1000
15 | CC(=O)Nc1ccc(Nc2ncc(C3CC3)c(NCCCNC(=O)c3cccs3)n2)cc1 [Example 28, Thiophene-2-carboxylic acid {3-[2-(4-acetylamino-phenylamino)-5-cyclopropyl-pyrimidin-4-ylamino]-propyl}-amide. Hydrochloride salt] | < 100
16 | Cc1ccc(Nc2ncc(C3CC3)c(NCCCNC(=O)c3cccs3)n2)cn1 [Example 30, Thiophene-2-carboxylic acid {3-[5-cyclopropyl-2-(6-methyl-pyridin-3-ylamino)-pyrimidin-4-ylamino]-propyl}-amide] | 1000 to 10000
17 | COC(=O)c1cccc(Nc2ncc(C3CC3)c(NCCCNC(=O)c3cccs3)n2)c1 [Example 33, 3-(5-Cyclopropyl-4-{3-[(thiophene-2-carbonyl)-amino]-propylamino}-pyrimidin-2-ylamino)-benzoic acid methyl ester trifluoroacetic acid salt] | 100 to 1000
18 | O=C(O)c1cccc(Nc2ncc(C3CC3)c(NCCCNC(=O)c3cccs3)n2)c1 [Example 34, 3-(5-Cyclopropyl-4-{3-[(thiophene-2-carbonyl)-amino]-propylamino}-pyrimidin-2-ylamino)-benzoic acid trifluoroacetic acid salt] | 100 to 1000
19 | NC(=O)c1cccc(Nc2ncc(C3CC3)c(NCCCNC(=O)c3cccs3)n2)c1 [Example 36, Thiophene-2-carboxylic acid {3-[2-(3-carbamoyl-phenylamino)-5-cyclopropyl-pyrimidin-4-ylamino]-propyl}-amide trifluoroacetic acid salt] | 100 to 1000
20 | O=C(NCCCNc1nc(Nc2ccc3ncsc3c2)ncc1C1CC1)c1cccs1 [Example 37, Thiophene-2-carboxylic acid {3-[2-(benzothiazol-6-ylamino)-5-cyclopropyl-pyrimidin-4-ylamino]-propyl}-amide. Hydrochloride salt] | < 100
21 | CC(=O)Nc1cccc(Nc2ncc(C3CC3)c(NCCCN3CCCC3=O)n2)c1 [Example 39, N-(3-{5-Cyclopropyl-4-[3-(2-oxo-pyrrolidin-1-yl)-propylamino]-pyrimidin-2-ylamino}-phenyl)-acetamide trifluoroacetate salt] | 100 to 1000
22 | O=C(NCCCNc1nc(Nc2ccc3ncsc3c2)ncc1C1CC1)C1CCC1 [Example 40, Cyclobutanecarboxylic acid {3-[2-(benzothiazol-6-ylamino)-5-cyclopropyl-pyrimidin-4-ylamino]-propyl}-amide. Hydrochloride salt] | < 100
23 | CN1CCN(c2ccc(Nc3ncc(C4CC4)c(NCCCNC(=O)C4CCC4)n3)cn2)CC1 [Example 43, Cyclobutanecarboxylic acid (3-{5-cyclopropyl-2-[6-(4-methyl-piperazin-1-yl)-pyridin-3-ylamino]-pyrimidin-4-ylamino}-propyl)-amide] | < 100
